Measurements taken from PMC2652407 (Journal of Medicinal Chemistry, 2009).

Columns and labels:
hAdoMetDC [1] = target: T1, hAdoMetDC (Homo sapiens, UniProt P17707); details: previously reported AdoMetDC inhibitor; cited from earlier work
T1 sequence (P17707 1-67 limits assumed): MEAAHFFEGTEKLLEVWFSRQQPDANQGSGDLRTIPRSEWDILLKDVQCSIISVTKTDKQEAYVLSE
T1 sequence (P17707 68-328 limits assumed): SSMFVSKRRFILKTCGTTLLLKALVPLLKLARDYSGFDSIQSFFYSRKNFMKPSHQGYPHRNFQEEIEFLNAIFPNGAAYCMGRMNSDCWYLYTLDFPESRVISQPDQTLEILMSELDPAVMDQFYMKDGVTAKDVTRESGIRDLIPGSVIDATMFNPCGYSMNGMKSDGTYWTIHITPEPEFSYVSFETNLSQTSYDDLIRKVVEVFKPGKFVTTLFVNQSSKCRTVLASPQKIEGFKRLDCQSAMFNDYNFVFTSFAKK

hAdoMetDC [2] = target: T1, hAdoMetDC; type: biochemical; details: versus corresponding 8-H parent compound

SMILES	Ki (hAdoMetDC [1])	reduction in the IC50 value / increase in potency when an 8-methyl substituent was added to the adenine ring (hAdoMetDC [2])
C[S+](C)C[C@H]1O[C@@H](n2cnc3c(N)ncnc32)[C@H](O)[C@@H]1O.[Cl-] [Compound 25d, 5′-Deoxy-5′-dimethylsulfonioadenosine chloride]	μM range	–
Cc1nc2c(N)ncnc2n1[C@@H]1O[C@H](CN(C)CCCCON)[C@@H](O)[C@H]1O.O=S(=O)(O)O [Compound 14d, 5′-[(4-Aminooxybutyl)methylamino]-5′-deoxy-8-methyladenosine sulfate (1.9:1 salt)]	–	3.4 fold
